# Experimental data reported in patent US5998377A, “Means for treating prostate cancer” (ASTA Medica Aktiengesellschaft, priority 1998, dated 1999).
# Non-standard residues stand in square brackets, D forms with d. Residues, ends and D or L forms follow the SMILES beside them. dPhe(4-Cl) = N[C@H](Cc1ccc(Cl)cc1)C(=O)O; d2Nal = N[C@H](Cc1ccc2ccccc2c1)C(=O)O; dCit = NC(=O)NCCC[C@@H](N)C(=O)O; d3Pal = N[C@H](Cc1cccnc1)C(=O)O
# Legend:
# BPH patients [1] = conditions: cited from earlier work
# BPH patients [2] = assay: Clinical therapy of BPH with Cetrorelix (Example 1); format: in vivo, human; conditions: therapy regimen of 4 to 8 weeks
# Procedure: The invention will be explained in detail using the following clinical results:
# Cetrorelix is administered in a dose of 0.5 mg to 2 mg daily for 4 to 8 weeks for the therapy of BPH. A dose of 5 mg to 30 mg, dispensed once per week or every 10 days also over a time period of 4 to 8 weeks as well as one every two weeks or one injection per month of 20 mg to 60 mg can also decisively improve the clinical symptoms and signs. […] The prostate volume decreases by 20 to 40% during the treatment time of 4 to 8 weeks. […] In addition, at least 30% of the patients achieve an improvement of the urine flow of 6 ml/sec with this therapy. This is almost equivalent to an improvement like that associated with the golden standard operation, and in considerably shorter time. […] These clinical benefits continue for at least 3 to 6 months after therapy. This allows a long-term therapy of BPH with only an intermittent treatment of 2 to max. 4 injection cycles over 4 to 8 weeks.
# [3] = tested on: prostate carcinoma patients; conditions: cited from earlier work
# [4] = BPH patients, 500 μg every 12 hours for 4 weeks
# [5] = prostate carcinoma patients, end of the 6 weeks of therapy
smiles,measurement,setting,value
CC(=O)N[C@H](Cc1ccc2ccccc2c1)C(=O)N[C@H](Cc1ccc(Cl)cc1)C(=O)N[C@H](Cc1cccnc1)C(=O)N[C@@H](CO)C(=O)N[C@@H](Cc1ccc(O)cc1)C(=O)N[C@H](CCCNC(N)=O)C(=O)N[C@@H](CC(C)C)C(=O)N[C@@H](CCCNC(=N)N)C(=O)N1CCC[C@H]1C(=O)N[C@H](C)C(N)=O [Cetrorelix] (Ac-[d2Nal][dPhe(4-Cl)][d3Pal]SY[dCit]LRP[dA]-NH2),"testosterone levels, initially","BPH patients [1]; BPH patients (all patients), 500 μg every 12 hours, initially",lowering in testosterone levels to a castration level
same,prostate volume,BPH patients [1]; [4],a decrease in prostate volume
same,symptoms of dysuria,BPH patients [1]; [4],distinct decrease of the symptoms of dysuria
same,testosterone levels during treatment,"BPH patients [1]; BPH patients, 500 μg every 12 hours for 4 weeks, no castration values during the last three weeks",fluctuated at subnormal levels
same,increase of the peak flow of the urine,BPH patients [2],approximately 3 ml/sec
same,patients achieving an improvement of the urine flow of 6 ml/sec,BPH patients [2],at least 30%
same,quality of life,BPH patients [2],significant improvements as regards quality of life
same,sexual performance,BPH patients [2],No limitations in sexual performance are observed
same,testosterone decrease,BPH patients [2],"Submaximal decreases of testosterone occur, but these are above those levels associated with castration"
same,"testosterone levels, initially","[3]; prostate carcinoma patients (all patients), 500 μg every 12 hours, initially",lowering in testosterone levels to a castration level
same,overall condition of the patient,[3]; [5],considerable improvement
same,testosterone values at the end of therapy,[3]; [5],at the castration levels
